Measured values published in patent US12648979B2, “Compositions comprising sulforaphane or a sulforaphane precursor and Moringa plant components” (Nutramax Laboratories, Inc., priority 2021, dated 2026).

Columns and labels:
[1] = system: broccoli sprout-derived myrosinase; test: Consumption of glucoraphanin by myrosinase as a function of ascorbic acid concentration (Example 3); assay type: biochemical
Protocol: A […] Interaction Chromatographic (HILIC) method was developed, comprising the following conditions: • Column: Waters BEH Amide, 1.7-μm particle size; 2.1 mm×100 mm; • Mobile Phase: 20% 10 mM Ammonium Acetate, pH 5.0; 80% acetonitrile; • Separation mode: isocratic; • Column Temperature: 70° C.; • Flow Rate: 0.7 mL/min.
About 250 mg of broccoli seed extract containing about 12% (w/w) glucoraphanin were subjected to hydrolysis by a fixed concentration of broccoli sprout-derived myrosinase in the presence of variable concentration of ascorbic acid, ranging from 0 to 600 μmoles/Liter. The reaction mixtures were thermostated at 38° C.; aliquots were withdrawn every 15 minutes for 60 minutes, and concentration of glucoraphanin determined chromatographically. The rate of glucoraphanin consumption was interpreted as the rate its conversion to sulforaphane. Graphical representation of glucoraphanin content reduction as a function of increasing ascorbic acid concentration results in a series of linear plots; the slopes of the linear regression lines reflect the rate of glucoraphanin consumption, in pmoles/minute. It is apparent that in the presence of 600 μmoles/Liter concentration of ascorbic acid, the reaction rate increased 13-fold relative to that which proceeded in the absence of modulatory effects of ascorbic acid.

myrosinase = test: Equimolar conversion of glucoraphanin to sulforaphane by myrosinase, HPLC (Example 4); assay type: biochemical, broccoli
Protocol: A two-part experiment was conducted to further elucidate the role of ascorbic acid in modulating myrosinase activity. All solutions were prepared in 20 mM Tris-buffered saline, at pH 7.5, previously identified as an optimal for myrosinase activity; each sample tube had 100 mg of freeze-dried broccoli powder accurately weighed in as a source of myrosinase. Experiment was conducted at 38° C. for 2 hours, with sample aliquots removed in 30-minute increments, and both glucoraphanin and sulforaphane content assessed by HPLC. […] A control sample contained no ascorbic acid, and the enzymatic conversion proceeded unassisted by a co-factor. PART 1. In the presence of the fixed concentration of ascorbic acid, 1 mmol/Liter, an increasing amount of broccoli seed extract (about 12% glucoraphanin, w/w) was added, ranging from 250 mg to 500 mg. PART 2. While keeping the amount of broccoli seed extract fixed at 250 mg, the concentration of ascorbic acid was varied from 0.4 mmol/Liter to 3.8 mmol/Liter.

[2] = GR 250 mg AA 0.0 mM (control), 0 min
[3] = GR 250 mg AA 0.0 mM (control), 30 min
[4] = GR 250 mg AA 0.0 mM (control), 60 min
[5] = GR 250 mg AA 0.0 mM (control), 90 min
[6] = GR 250 mg AA 0.0 mM (control), 120 min

C[S+]([O-])CCCC/C(=N\OS(=O)(=O)O)S[C@@H]1O[C@H](CO)[C@@H](O)[C@H](O)[C@H]1O (stereo partly shown) [GR, 4-methylsulfinylbutyl glucosinolate]
Slope (rate of glucoraphanin consumption) ([1]; ascorbic acid 0 μM): -0.09293 µmol/min
Glucoraphanin content (μmoles GR) ([1]; ascorbic acid 0 μM, 0 min): 93.36 µmol
Glucoraphanin content (μmoles GR) ([1]; ascorbic acid 0 μM, 15 min): 92.24 µmol
Glucoraphanin content (μmoles GR) ([1]; ascorbic acid 0 μM, 30 min): 90.71 µmol
Glucoraphanin content (μmoles GR) ([1]; ascorbic acid 0 μM, 45 min): 89.44 µmol
Glucoraphanin content (μmoles GR) ([1]; ascorbic acid 0 μM, 60 min): 87.79 µmol
Slope (rate of glucoraphanin consumption) ([1]; ascorbic acid 50 μM): -0.286 µmol/min
Glucoraphanin content (μmoles GR) ([1]; ascorbic acid 50 μM, 0 min): 93.36 µmol
Glucoraphanin content (μmoles GR) ([1]; ascorbic acid 50 μM, 15 min): 89.20 µmol
Glucoraphanin content (μmoles GR) ([1]; ascorbic acid 50 μM, 30 min): 84.24 µmol
Glucoraphanin content (μmoles GR) ([1]; ascorbic acid 50 μM, 45 min): 80.30 µmol
Glucoraphanin content (μmoles GR) ([1]; ascorbic acid 50 μM, 60 min): 76.36 µmol
Slope (rate of glucoraphanin consumption) ([1]; ascorbic acid 125 μM): -0.5622 µmol/min
Glucoraphanin content (μmoles GR) ([1]; ascorbic acid 125 μM, 0 min): 93.36 µmol
Glucoraphanin content (μmoles GR) ([1]; ascorbic acid 125 μM, 15 min): 84.52 µmol
Glucoraphanin content (μmoles GR) ([1]; ascorbic acid 125 μM, 30 min): 75.92 µmol
Glucoraphanin content (μmoles GR) ([1]; ascorbic acid 125 μM, 45 min): 68.09 µmol
Glucoraphanin content (μmoles GR) ([1]; ascorbic acid 125 μM, 60 min): 59.41 µmol
Slope (rate of glucoraphanin consumption) ([1]; ascorbic acid 250 μM): -0.7901 µmol/min
Slope (rate of glucoraphanin consumption) ([1]; ascorbic acid 250 μM Filtered): -0.4714 µmol/min
Glucoraphanin content (μmoles GR) ([1]; ascorbic acid 250 μM Filtered, 0 min): 93.36 µmol
Glucoraphanin content (μmoles GR) ([1]; ascorbic acid 250 μM Filtered, 15 min): 86.31 µmol
Glucoraphanin content (μmoles GR) ([1]; ascorbic acid 250 μM Filtered, 30 min): 79.44 µmol
Glucoraphanin content (μmoles GR) ([1]; ascorbic acid 250 μM Filtered, 45 min): 71.94 µmol
Glucoraphanin content (μmoles GR) ([1]; ascorbic acid 250 μM Filtered, 60 min): 65.18 µmol
Glucoraphanin content (μmoles GR) ([1]; ascorbic acid 250 μM, 0 min): 93.36 µmol
Glucoraphanin content (μmoles GR) ([1]; ascorbic acid 250 μM, 15 min): 80.95 µmol
Glucoraphanin content (μmoles GR) ([1]; ascorbic acid 250 μM, 30 min): 69.06 µmol
Glucoraphanin content (μmoles GR) ([1]; ascorbic acid 250 μM, 45 min): 57.63 µmol
Glucoraphanin content (μmoles GR) ([1]; ascorbic acid 250 μM, 60 min): 45.76 µmol
Slope (rate of glucoraphanin consumption) ([1]; ascorbic acid 400 μM): -1.007 µmol/min
Glucoraphanin content (μmoles GR) ([1]; ascorbic acid 400 μM, 0 min): 93.36 µmol
Glucoraphanin content (μmoles GR) ([1]; ascorbic acid 400 μM, 15 min): 78.32 µmol
Glucoraphanin content (μmoles GR) ([1]; ascorbic acid 400 μM, 30 min): 62.78 µmol
Glucoraphanin content (μmoles GR) ([1]; ascorbic acid 400 μM, 45 min): 47.67 µmol
Glucoraphanin content (μmoles GR) ([1]; ascorbic acid 400 μM, 60 min): 33.15 µmol
Slope (rate of glucoraphanin consumption) ([1]; ascorbic acid 600 μM): -1.2 µmol/min
Glucoraphanin content (μmoles GR) ([1]; ascorbic acid 600 μM, 0 min): 93.36 µmol
Glucoraphanin content (μmoles GR) ([1]; ascorbic acid 600 μM, 15 min): 75.02 µmol
Glucoraphanin content (μmoles GR) ([1]; ascorbic acid 600 μM, 30 min): 55.66 µmol
Glucoraphanin content (μmoles GR) ([1]; ascorbic acid 600 μM, 45 min): 37.50 µmol
Glucoraphanin content (μmoles GR) ([1]; ascorbic acid 600 μM, 60 min): 22.09 µmol
Glucoraphanin (myrosinase; [2]): 58.02 µmol
Sulforaphane (myrosinase; [2]): 3.42 µmol
Glucoraphanin (myrosinase; [3]): 48.57 µmol
Sulforaphane (myrosinase; [3]): 12.08 µmol
Glucoraphanin (myrosinase; [4]): 37.52 µmol
Sulforaphane (myrosinase; [4]): 22.27 µmol
Glucoraphanin (myrosinase; [5]): 28.58 µmol
Sulforaphane (myrosinase; [5]): 33.17 µmol
Glucoraphanin (myrosinase; [6]): 15.67 µmol
Sulforaphane (myrosinase; [6]): 42.89 µmol
Glucoraphanin (myrosinase; GR 250 mg AA 0.4 mM, 0 min): 45.66 µmol
Sulforaphane (myrosinase; GR 250 mg AA 0.4 mM, 0 min): 15.96 µmol
Sulforaphane (myrosinase; GR 250 mg AA 0.4 mM, 30 min): 62.06 µmol
Sulforaphane (myrosinase; GR 250 mg AA 0.4 mM, 60 min): 61.01 µmol
Sulforaphane (myrosinase; GR 250 mg AA 0.4 mM, 90 min): 60.88 µmol
Sulforaphane (myrosinase; GR 250 mg AA 0.4 mM, 120 min): 56.90 µmol
